Results on 3 molecules are retold here after ChEMBL document CHEMBL1201862, “PubChem BioAssay data set” (2004).

What is called AC50 is the midpoint of the concentration-response curve, whichever way the signal moves. Broadly, the IC50 is the concentration at which inhibition is half-maximal. One may read the EC50 as the concentration needed to bring the measured effect to its halfway point. By Ki is commonly meant a measure of affinity in units of concentration, obtained from inhibition or displacement.

Assay [1] addresses T1, DNA repair protein RAD52 homolog (Homo sapiens, UniProt P43351).
T1 sequence (P43351 whole entry): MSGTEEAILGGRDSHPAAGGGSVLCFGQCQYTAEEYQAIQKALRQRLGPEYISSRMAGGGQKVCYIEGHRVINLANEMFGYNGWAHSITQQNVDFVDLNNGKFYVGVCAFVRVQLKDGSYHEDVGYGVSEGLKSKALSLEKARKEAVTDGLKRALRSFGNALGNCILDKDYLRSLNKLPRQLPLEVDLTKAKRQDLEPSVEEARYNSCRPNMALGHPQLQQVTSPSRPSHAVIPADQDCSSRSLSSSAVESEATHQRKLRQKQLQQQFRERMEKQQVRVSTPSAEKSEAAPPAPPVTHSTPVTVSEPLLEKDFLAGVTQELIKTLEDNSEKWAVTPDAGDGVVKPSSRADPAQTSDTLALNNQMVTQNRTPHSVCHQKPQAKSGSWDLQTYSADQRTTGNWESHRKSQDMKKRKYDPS
The class given is functional, biochemical.

The target of the next assay is Nonstructural protein 1 (Influenza A virus, UniProt Q194T2). The assay is classed as functional, Influenza A virus (A/California/07/2009(H1N1)).
A short description of assay [2]: growth suppression of PTEN-null colon cells, dose response, cell-based, HCT116 PTEN knockout (AID 1047).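 Also: HCT116 colon tumor cells with PTEN knocked out; cells exposed to compound for 60 hours before readout; potency for loss of cell viability measured by luminescence.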 The assay is classed as functional.
The next assay has as its target Caspase-9 (Homo sapiens, UniProt P55211). As to the kind of experiment: caspase-9 enzyme inhibition, dose response, selectivity assay for caspase-6 inhibitor project, biochemical, fluorescence, plate reader, cherry-picked samples (AID 743293).
For assay [3], the target named is Proto-oncogene tyrosine-protein kinase receptor Ret (Homo sapiens, UniProt P07949). The assay is classed as functional.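 Also: measured within a kinome-wide profiling panel, RET as the panel member.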
Another assay concerns the target Focal adhesion kinase 1 (Homo sapiens, UniProt Q05397). The assay is classed as functional.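 Also: measured as one member of a kinome panel.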

The source made the active and inactive calls. Where only a bound is given, the exact number is not on record here.

Chain of Nonstructural protein 1 (Q194T2 whole entry): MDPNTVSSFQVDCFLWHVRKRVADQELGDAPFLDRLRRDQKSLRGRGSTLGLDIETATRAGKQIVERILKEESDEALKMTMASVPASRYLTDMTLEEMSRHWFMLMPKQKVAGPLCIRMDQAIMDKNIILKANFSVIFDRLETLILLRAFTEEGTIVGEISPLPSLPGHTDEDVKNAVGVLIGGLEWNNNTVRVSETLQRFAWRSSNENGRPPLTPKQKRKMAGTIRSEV
Chain of Focal adhesion kinase 1 (Q05397 whole entry): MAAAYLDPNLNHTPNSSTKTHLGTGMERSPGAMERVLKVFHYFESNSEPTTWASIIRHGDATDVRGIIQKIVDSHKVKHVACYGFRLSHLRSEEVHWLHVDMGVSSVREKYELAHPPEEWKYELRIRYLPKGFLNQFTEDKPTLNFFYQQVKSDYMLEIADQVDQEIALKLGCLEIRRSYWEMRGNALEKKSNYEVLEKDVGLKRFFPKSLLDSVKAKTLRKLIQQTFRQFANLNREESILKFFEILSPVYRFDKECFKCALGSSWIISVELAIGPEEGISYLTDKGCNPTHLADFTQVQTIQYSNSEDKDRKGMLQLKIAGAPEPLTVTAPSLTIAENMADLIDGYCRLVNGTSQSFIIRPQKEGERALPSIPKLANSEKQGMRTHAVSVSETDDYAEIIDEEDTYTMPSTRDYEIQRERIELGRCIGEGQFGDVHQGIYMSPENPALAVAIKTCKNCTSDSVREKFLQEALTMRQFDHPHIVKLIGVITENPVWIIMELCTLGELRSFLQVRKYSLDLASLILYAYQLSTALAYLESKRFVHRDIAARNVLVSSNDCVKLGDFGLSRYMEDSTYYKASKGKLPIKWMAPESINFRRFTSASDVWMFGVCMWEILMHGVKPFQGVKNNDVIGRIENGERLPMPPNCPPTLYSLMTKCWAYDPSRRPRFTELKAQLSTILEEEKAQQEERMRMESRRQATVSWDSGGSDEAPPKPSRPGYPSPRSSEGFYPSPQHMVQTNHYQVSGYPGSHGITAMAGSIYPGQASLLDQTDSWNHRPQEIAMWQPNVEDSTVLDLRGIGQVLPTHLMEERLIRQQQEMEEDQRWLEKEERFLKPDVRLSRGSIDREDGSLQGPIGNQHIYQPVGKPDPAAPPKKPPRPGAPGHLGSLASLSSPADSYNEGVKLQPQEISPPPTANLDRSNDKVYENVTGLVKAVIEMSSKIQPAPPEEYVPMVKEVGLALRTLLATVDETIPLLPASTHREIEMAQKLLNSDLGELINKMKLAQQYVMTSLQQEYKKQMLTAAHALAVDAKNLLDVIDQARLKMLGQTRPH
Chain of Caspase-9 (P55211 1-315 limits assumed): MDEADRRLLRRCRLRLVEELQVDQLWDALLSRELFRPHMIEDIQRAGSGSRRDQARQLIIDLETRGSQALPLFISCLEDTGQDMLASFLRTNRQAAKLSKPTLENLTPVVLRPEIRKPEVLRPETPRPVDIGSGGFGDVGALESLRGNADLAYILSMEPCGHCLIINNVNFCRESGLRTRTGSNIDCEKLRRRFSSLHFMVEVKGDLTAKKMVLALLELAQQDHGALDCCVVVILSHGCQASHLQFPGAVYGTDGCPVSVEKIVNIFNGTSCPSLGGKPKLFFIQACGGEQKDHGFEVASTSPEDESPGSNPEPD
Chain of Caspase-9 (P55211 331-416 limits assumed): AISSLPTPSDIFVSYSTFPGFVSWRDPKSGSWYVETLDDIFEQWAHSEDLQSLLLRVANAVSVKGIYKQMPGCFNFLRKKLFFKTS
Chain of Proto-oncogene tyrosine-protein kinase receptor Ret (P07949 whole entry): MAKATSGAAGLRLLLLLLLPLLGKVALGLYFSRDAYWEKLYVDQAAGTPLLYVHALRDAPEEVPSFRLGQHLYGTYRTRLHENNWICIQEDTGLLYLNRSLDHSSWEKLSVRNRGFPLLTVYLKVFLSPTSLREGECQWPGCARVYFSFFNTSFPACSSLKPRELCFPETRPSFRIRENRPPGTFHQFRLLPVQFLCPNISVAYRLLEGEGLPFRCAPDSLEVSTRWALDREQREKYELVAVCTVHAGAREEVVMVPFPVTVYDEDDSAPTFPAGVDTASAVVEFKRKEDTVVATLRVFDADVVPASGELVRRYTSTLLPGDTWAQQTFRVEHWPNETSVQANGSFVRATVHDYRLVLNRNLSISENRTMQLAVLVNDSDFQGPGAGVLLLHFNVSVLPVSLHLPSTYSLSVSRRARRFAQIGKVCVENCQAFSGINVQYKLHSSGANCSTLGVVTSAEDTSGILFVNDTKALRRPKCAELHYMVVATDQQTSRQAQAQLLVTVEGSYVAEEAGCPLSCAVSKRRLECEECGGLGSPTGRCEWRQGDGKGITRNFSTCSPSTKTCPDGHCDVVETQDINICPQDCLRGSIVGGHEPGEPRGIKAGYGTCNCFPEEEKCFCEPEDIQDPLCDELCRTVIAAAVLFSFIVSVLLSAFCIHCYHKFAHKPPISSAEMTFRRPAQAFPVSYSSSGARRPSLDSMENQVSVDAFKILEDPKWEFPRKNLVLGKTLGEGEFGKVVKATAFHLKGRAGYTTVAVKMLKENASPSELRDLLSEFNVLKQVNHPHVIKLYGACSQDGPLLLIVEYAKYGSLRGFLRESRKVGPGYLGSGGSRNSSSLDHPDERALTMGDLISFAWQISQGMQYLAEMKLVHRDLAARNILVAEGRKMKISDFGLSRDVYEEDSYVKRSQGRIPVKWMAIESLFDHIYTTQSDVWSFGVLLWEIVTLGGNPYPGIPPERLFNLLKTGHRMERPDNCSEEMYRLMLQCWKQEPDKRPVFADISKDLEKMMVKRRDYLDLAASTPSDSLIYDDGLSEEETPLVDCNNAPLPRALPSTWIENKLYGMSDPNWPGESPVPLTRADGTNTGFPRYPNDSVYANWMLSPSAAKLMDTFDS

`CCN(CC)CCOc1ccc2c(c1)C(=NNC(=O)c1ccccn1)c1cc(OCCN(CC)CC)ccc1-2`: in assay [1], the AC50 was < 150 nM (active). Further, the IC50 on Nonstructural protein 1 was 13800 nM (active). In addition, the EC50 in assay [2] was 3250 nM (active).

Turning to `Oc1nc(Nc2ccc(F)cc2)cc2ccccc12`, the AC50 at Caspase-9 is 3040 nM (active).

Consider `NC(COc1cncc(-c2ccc3c(c2)C(=Cc2ccc[nH]2)C(=O)N3)c1)Cc1ccccc1` (stereo unspecified), for which the figures for the Ki (in assay [3]; on Focal adhesion kinase 1) were 5.01 nM (active) and 2000 nM (active), respectively.
